Experimental data as given in patent US11337916B2, “Myrciaria dubia fruit extracts rich in organic acids, cosmetic compositions comprising same and cosmetic uses thereof” (ISP INVESTMENTS LLC, priority 2018, dated 2022).

What was measured:
[1] = tested on: PFKFB3 (6-phosphofructo-2-kinase/fructose-2,6-biphosphatase 3); experiment: PFKFB3 expression on reconstructed epidermis in tired condition (immunofluorescence); type: cell-based, human; conditions: rotenone alone
Description: The aim of this study is to determine the level of expression of PFKFB3 (6-phosphofructo-2-kinase/fructose-2,6-biphosphatase 3) in a model of “tired” reconstructed human skin.
PFKFB3 is involved in the glycolysis process. It is an inducible enzyme that is expressed by the active epithelial cells of the epidermis. It enables the activation of the enzyme PFK-1 (phosphofructokinase-1), which limits this glycolysis process.
To obtain “tired” skin, this is reconstructed using adult donor keratinocytes and a respiratory chain inhibitor (rotenone) to create a lack of energy (see example 6). These cultures are treated during reconstruction with 0.1% E1 Myrciaria extract (volume/volume), i.e. diluted 1/1000th in the culture medium.
(§1) Protocol: On day 12 of epidermal reconstruction, rotenone is added to the culture medium. A control condition is maintained without adding rotenone but changing the culture medium anyway. After 3 h incubation with the inhibitor, the medium is changed to a new medium containing 0.1% E1 Myrciaria extract and the epidermises are incubated again for 48 h. […]
For staining, the cuts are dewaxed by xylene and ethanol baths and then rinsed. […] The cuts are then examined under an Epi-fluorescence microscope (Zeiss Axiovert 200M microscope). A quantification of the fluorescence, using Volocity® image analysis software (PerkinElmer, Inc.), is performed from the obtained photographs.

[2] = tested on: reconstructed epidermis; experiment: Morphology of reconstructed epidermis in tired condition (rotenone), haematoxylin-eosin staining; type: cell-based, human; conditions: rotenone added on day 12 of reconstruction, 3 h incubation
Description: The aim of this study is to create a model of reconstructed “tired” human skin. To do this, the skin is reconstructed using adult donor keratinocytes and a respiratory chain inhibitor (rotenone) to create a lack of energy.
The use of a respiratory chain inhibitor such as rotenone creates mitochondrial dysfunction, including ATP depletion. Therefore, lack of cellular energy was equated in our model to a state of cellular fatigue (Han G et al, The mitochondrial complex I inhibitor rotenone induces endoplasmic reticulum stress and activation of GSK-3β in cultured rat retinal cells, Invest Ophthalmol Vis Sci. 31; 55(9):5616-28, 2014). These cultures are treated during the reconstruction with 0.1% E1 Myrciaria extract (volume/volume), i.e. diluted 1/1000th or 1% (volume/volume), i.e. diluted 1/100th in the culture medium.
as §1, with “epidermis is” for “epidermises are”, “h. The placebo condition contains PBS (phosphate buffer saline) in the culture medium. The morphology of the skin is then observed by a Haematoxylin-Eosin (HE) staining.” for “h.”

[3] = tested on: creatine kinase; experiment: Creatine kinase activity on "tired" dermal fibroblast cultures; type: cell-based; conditions: 0.1% E1 extract or vitamin C at 4 μg/mL, two days of treatment
Experimental: The aim of this study is to determine the level of creatine kinase activity in dermal fibroblast cultures. The function of this enzyme is to catalyse the conversion of creatine to phosphocreatine, thus providing a rapidly usable energy reserve. This activity measurement is performed on cultures of “tired” dermal fibroblasts treated with 0.1% E1 Myrciaria extract (volume/volume), i.e. diluted 1/1000th in the culture medium. Protocol: Dermal fibroblast cultures are “tired” by a few replications (cells used between passes 15 and 20) and are fed with a nutrient-poor medium (without glucose) for 3 days. These cultures are treated with 0.1% E1 Myrciaria extract, or with vitamin C at 4 μg/mL as a positive control, from the second day of stress and for the remaining two days of stress. Two days after the start of treatment, a measurement of creatine kinase activity is performed using a kit (Abcam—ref: ab155901). For this purpose, the fibroblasts are detached with the CK buffer contained in the kit, recovered and centrifuged at 4000 g for 5 min at 4° C. The activity is then measured for each sample according to the kit protocol. Kinetics are obtained by a colorimetric reading with the Synergy 2 spectrometer (Biotek) coupled to Gen5 software.

For `C=C(C)[C@H]1Cc2c(ccc3c2O[C@@H]2COc4cc(OC)c(OC)cc4[C@@H]2C3=O)O1` [rotenone], the “PFKFB3 expression change compared to unstressed epidermises” value [1] was −20% and the “morphology of reconstructed epidermis versus control (HE staining)” value [2] was “thinner epidermis than the control and a more damaged basal layer”.

In the case of `O=C1O[C@H]([C@@H](O)CO)C(O)=C1O` [vitamin C], the “creatine kinase activity increase compared to untreated "tired" cells” value [3] is reported as “+44%”.
